Data from patent US20190135834A1, “5-SUBSTITUTED AZABENZIMIDAZOLE DERIVATIVE HAVING ???? ACTIVATION ACTION” (Shionogi & Co., Ltd., priority 2016, published 2019).

Target: T1, Human AMPK α2ß2γ1 (Homo sapiens, UniProt O43741+P54646)
T1 construct: The full length cDNAs of human AMPK ß2 (NM_005399.3) and human AMPK α2 (NM_006252.3); The full length cDNAs of human AMPK ß2 (NM_005399.3); 6xHis (N); made in house; host or cells: Escherichia coli BL21 CodonPlus (DE3)-RIL
Assay: Test Example 2: evaluation of an activator for AMP-activated protein kinase (AMPK), LabChip mobility shift assay with CaMKK2-phosphorylated enzyme
Type: biochemical
Settings: for EC150 (compound concentration showing 150% relative to the control (100%)): FL-Peptide 7 substrate, 25° C., 2 hours; for Emax / Emax (maximum rate of increase in activity within the measurement range): relative to control (100%); for Emax: read-out: Emax (maximum rate of increase in activity within the measurement range)
Description: The full length cDNAs of human AMPK ß2 (NM_005399.3) and human AMPK α2 (NM_006252.3) were inserted into the MCS1 and MCS2 of the pETDuet-1 vector to prepare a human AMPK ß2 and human AMPK α2 (6× His tag at the 5′ terminus) expressing plasmid. The plasmid was cotransfected with an expression plasmid, in which the full length cDNA of human AMPK γ1 (NM_002733.3) had been inserted into pET28b(+), into BL21 CodonPlus (DE3)-RIL to obtain an expression strain. The expression strain was cultured in TB medium, followed by induction with 0.5 mM IPTG, and cultured at 25° C. for 3 hours and then harvested. After ultrasonication, supernatant was collected and applied to Histrap FF column (GE) and RESOURCE Q column (GE) to prepare 12.5 mg of purified sample containing three types of subunit from 1.8 L of broth.
Preparation method of human CaMKK2 used to impart activity to AMPK An expression vector, in which the full length cDNA of human CAMKK ß (NM_172226.1) had been inserted into pGEX-6P-3, was transfected into BL21 Star (DE3). The expression strain was cultured in TB medium, followed by induction with 0.5 mM IPTG, and cultured at 25° C. for 3 hours and then harvested. After ultrasonication, supernatant was collected and applied to GSTrap FF column (GE) to prepare 14 mg of GST-fused CAMKK ß from 720 ml of broth.
Thus, phosphorylation treatment was carried out as pretreatment.
Human AMPK α2ß2γ1 in an amount to give a conversion rate of approximately 10% by reaction for 2 hours, and CaMKK2 in an amount capable of sufficiently imparting activity to AMPK for one hour were mixed in a buffer solution consisting of a 50 mM HEPES-NaOH buffer solution (pH 7.0), 100 mM NaCl, 5 mM magnesium chloride, 0.1% bovine serum albumin, 0.2 mM sodium orthovanadate(V), 1 mM ethylene glycol-bis(2-aminoethyl ether)-N,N,N′,N′-tetraacetic acid (EGTA), 5 mM disodium ß-glycerophosphate, 1 mM dithiothreitol and 0.2 mM ATP, and the resulting liquid was left to stand at 25° C. for 1 to 1.5 hours to sufficiently phosphorylate AMPK.
After that, to the enzyme liquid, which had been subjected to phosphorylation treatment, a compound dissolved in DMSO was added so as to have a 1% DMSO concentration. The resulting liquid was left to stand for 10 minutes.
To the liquid, a substrate solution consisting of a 50 mM HEPES-NaOH buffer solution (pH 7.0), 100 mM NaCl, 10 mM magnesium chloride, 0.1% bovine serum albumin, 0.2 mM sodium orthovanadate(V), 1 mM ethylene glycol-bis(2-aminoethyl ether)-N,N,N′,N′-tetraacetic acid (EGTA), 5 mM disodium ß-glycerophosphate, 2 mM dithiothreitol, 0.4 mM ATP and 3 μM FL-Peptide 7 (manufactured by Caliper Life Sciences, Inc.) was added in equal amount (10 μl in total). The resulting liquid was allowed to react at 25° C. for 2 hours, and 10 μl of 20 mM EDTA was added thereto to stop the reaction.
To detect phosphorylated fluorescent substrates, the reaction mixture was applied to a measuring device, LabChip EZ Reader II manufactured by Caliper Life Science, Inc., for detecting fluorescence by using differences in mobility due to differences in charge. The setting conditions for the device were pressure, −1.5 PSI; upstream voltage, −2250 V; downstream voltage, −400 V; post sample buffer sip time, 40 seconds; final delay, 120 seconds; and peak order, Product First.
A conversion rate was calculated from the peak heights of the obtained substrate and product. The conversion rate when not containing a compound was used as a control, and a concentration dependent curve was made by plotting the rate of increase in activity to the control at each concentration of a compound.

T1 sequence (P54646 whole entry): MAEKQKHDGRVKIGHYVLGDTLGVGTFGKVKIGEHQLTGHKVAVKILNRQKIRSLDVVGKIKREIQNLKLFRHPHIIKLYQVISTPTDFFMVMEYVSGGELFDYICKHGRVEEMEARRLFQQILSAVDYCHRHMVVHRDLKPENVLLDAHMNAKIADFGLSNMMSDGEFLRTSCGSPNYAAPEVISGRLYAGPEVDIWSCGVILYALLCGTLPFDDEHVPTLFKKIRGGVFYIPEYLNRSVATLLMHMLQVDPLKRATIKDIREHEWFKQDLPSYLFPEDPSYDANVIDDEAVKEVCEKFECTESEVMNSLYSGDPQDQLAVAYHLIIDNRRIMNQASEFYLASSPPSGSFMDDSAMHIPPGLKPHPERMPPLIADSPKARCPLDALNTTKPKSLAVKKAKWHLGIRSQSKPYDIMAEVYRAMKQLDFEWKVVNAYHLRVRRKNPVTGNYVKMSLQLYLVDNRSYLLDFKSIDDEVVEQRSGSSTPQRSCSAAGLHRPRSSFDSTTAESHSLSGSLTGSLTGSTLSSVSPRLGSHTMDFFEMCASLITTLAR
T1 sequence (O43741 whole entry): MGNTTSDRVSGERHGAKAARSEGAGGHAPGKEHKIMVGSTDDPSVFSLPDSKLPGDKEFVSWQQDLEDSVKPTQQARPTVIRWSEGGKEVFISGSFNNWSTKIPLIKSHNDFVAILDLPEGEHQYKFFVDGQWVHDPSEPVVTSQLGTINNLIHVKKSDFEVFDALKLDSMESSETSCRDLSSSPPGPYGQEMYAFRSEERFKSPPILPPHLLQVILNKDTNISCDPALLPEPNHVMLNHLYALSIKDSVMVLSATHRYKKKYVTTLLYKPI
T1 sequence (P54619 whole entry partner): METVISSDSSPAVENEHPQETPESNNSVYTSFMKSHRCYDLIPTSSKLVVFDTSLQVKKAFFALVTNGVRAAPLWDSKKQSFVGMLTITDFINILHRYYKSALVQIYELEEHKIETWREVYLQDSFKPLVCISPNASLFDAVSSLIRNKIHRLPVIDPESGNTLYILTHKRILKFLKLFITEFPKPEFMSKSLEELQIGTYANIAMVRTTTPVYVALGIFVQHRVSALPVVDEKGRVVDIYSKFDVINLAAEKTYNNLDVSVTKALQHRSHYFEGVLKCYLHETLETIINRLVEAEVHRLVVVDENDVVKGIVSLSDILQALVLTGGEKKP

Row | SMILES | EC150 (compound concentration showing 150% relative to the control (100%)) [nM] | Emax [%] | Emax (maximum rate of increase in activity within the measurement range) [%]
1 | O[C@@H]1CO[C@H]2[C@@H]1OC[C@H]2Oc1nc2nc(NC3CCc4cc(OCC5(F)COC5)cc(F)c43)c(Cl)cc2[nH]1 (stereo partly shown) [Compound I-1-99] | 4.6 | 422 | 
2 | OCC/C=C/c1cc(F)c2c(c1)CCC2Nc1nc2nc(O[C@@H]3CO[C@H]4[C@@H]3OC[C@H]4O)[nH]c2cc1Cl (stereo partly shown) [Compound I-1-100] | 3.5 | 441 | 
3 | COCCOc1cc(F)c2c(c1)CCC2Nc1nc2nc(O[C@@H]3CO[C@H](CO)C3)[nH]c2cc1Cl (stereo partly shown) [Compound I-1-104] | 2.3 | 423 | 
4 | COCC(=O)Nc1cc(F)c2c(c1)CCC2Nc1nc2nc(O[C@@H]3CO[C@H]4[C@@H]3OC[C@H]4O)[nH]c2cc1Cl (stereo partly shown) [Compound I-1-105] | 4.1 | 434 | 
5 | Cn1cc(-c2cc(F)c3c(c2)CCC3Nc2nc3nc(O[C@@H]4CO[C@H]5[C@@H]4OC[C@H]5O)[nH]c3cc2Cl)ccc1=O (stereo partly shown) [Compound I-1-106] | 1.4 | 462 | 
6 | O[C@@H]1CO[C@H]2[C@@H]1OC[C@H]2Oc1nc2nc(NC3CCc4cc(-c5cnccn5)cc(F)c43)c(Cl)cc2[nH]1 (stereo partly shown) [Compound I-1-111] | 4.5 | 424 | 
7 | O[C@@H]1CO[C@H]2[C@@H]1OC[C@H]2Oc1nc2nc(N[C@H]3CCc4cc(O[C@H]5CC[C@@H](O)CC5)cc(F)c43)c(Cl)cc2[nH]1 [Compound I-2-01] | 1.8 | 646 | 
8 | COCC1CC1c1cc(F)c2c(c1)CC[C@@H]2Nc1nc2nc(O[C@@H]3CO[C@H]4[C@@H]3OC[C@H]4O)[nH]c2cc1Cl (stereo partly shown) [Compound I-2-02] | 2.4 | 557 | 
9 | O[C@@H]1CO[C@H]2[C@@H]1OC[C@H]2Oc1nc2nc(NC3CCc4cc(OCCOCC(F)(F)F)cc(F)c43)c(Cl)cc2[nH]1 (stereo partly shown) [Compound I-2-05] | 6 | 680 | 
10 | O[C@@H]1CO[C@H]2[C@@H]1OC[C@H]2Oc1nc2nc(NC3CCc4cc(OCCF)cc(F)c43)c(Cl)cc2[nH]1 (stereo partly shown) [Compound I-2-06] | 3.6 |  | 707
11 | CCOC/C=C/c1cc(F)c2c(c1)CC[C@@H]2Nc1nc2nc(O[C@@H]3CO[C@H]4[C@@H]3OC[C@H]4O)[nH]c2cc1Cl [Compound I-2-07] | 2 | 727 | 
12 | CS(C)(=O)=Nc1cc(F)c2c(c1)CC[C@@H]2Nc1nc2nc(O[C@@H]3CO[C@H]4[C@@H]3OC[C@H]4O)[nH]c2cc1Cl [Compound I-2-08] | 3.5 | 688 | 
13 | CC(C)(O)COc1cc(F)c2c(c1)CCC2Nc1nc2nc(O[C@@H]3CO[C@H]4[C@@H]3OC[C@H]4O)[nH]c2cc1Cl (stereo partly shown) [Compound I-2-09] | 3.9 | 633 | 
14 | N#Cc1cc(F)c2c(c1)CC[C@@H]2Nc1nc2nc(O[C@@H]3CO[C@H]4[C@@H]3OC[C@H]4O)[nH]c2cc1Cl [Compound I-2-10] | 3.4 | 642 | 
15 | O[C@@H]1CO[C@H]2[C@@H]1OC[C@H]2Oc1nc2cc(Cl)c(NC3CCc4cc(OCCOC(F)F)cc(F)c43)nc2[nH]1 (stereo partly shown) [Compound I-2-14] | 5.6 | 594 | 
16 | COCn1cc(-c2cc(F)c3c(c2)CC[C@@H]3Nc2nc3[nH]c(O[C@@H]4CO[C@H]5[C@@H]4OC[C@H]5O)nc3cc2Cl)cn1 [Compound I-2-17] | 1.4 | 720 | 
17 | O[C@@H]1CO[C@H]2[C@@H]1OC[C@H]2Oc1nc2nc(NC3CCc4cc(-c5ccoc5)cc(F)c43)c(Cl)cc2[nH]1 (stereo partly shown) [Compound I-2-21] | 4.9 | 650 | 
18 | Cn1nccc1-c1cc(F)c2c(c1)CCC2Nc1nc2nc(O[C@@H]3CO[C@H]4[C@@H]3OC[C@H]4O)[nH]c2cc1Cl (stereo partly shown) [Compound I-2-23] | 12 | 709 | 
19 | COc1ccc(-c2cc(F)c3c(c2)CCC3Nc2nc3nc(O[C@@H]4CO[C@H]5[C@@H]4OC[C@H]5O)[nH]c3cc2Cl)cn1 (stereo partly shown) [Compound I-2-26] | 7.1 |  | 669
20 | O=S(=O)(NCCOc1cc(F)c2c(c1)CCC2Nc1nc2nc(O[C@@H]3CO[C@H]4[C@@H]3OC[C@H]4O)[nH]c2cc1Cl)C(F)F (stereo partly shown) [Compound I-2-32] | 9 | 714 | 
21 | COCC(=O)NCCOc1cc(F)c2c(c1)CCC2Nc1nc2nc(O[C@@H]3CO[C@H]4[C@@H]3OC[C@H]4O)[nH]c2cc1Cl (stereo partly shown) [Compound I-2-33] | 3 | 704 | 
22 | O=C(NCCOc1cc(F)c2c(c1)CCC2Nc1nc2nc(O[C@@H]3CO[C@H]4[C@@H]3OC[C@H]4O)[nH]c2cc1Cl)C1CCC1 (stereo partly shown) [Compound I-2-34] | 6.6 | 719 | 
23 | CS(=O)(=O)NCCOc1cc(F)c2c(c1)CCC2Nc1nc2nc(O[C@@H]3CO[C@H]4[C@@H]3OC[C@@H]4F)[nH]c2cc1Cl (stereo partly shown) [Compound I-2-35] | 10 | 679 | 
24 | CC(C)OCCOc1cc(F)c2c(c1)CCC2Nc1nc2nc(O[C@@H]3CO[C@H]4[C@@H]3OC[C@H]4O)[nH]c2cc1Cl (stereo partly shown) [Compound I-2-36] | 3.9 | 698 | 
25 | CC(C)(O)/C=C/c1cc(F)c2c(c1)CCC2Nc1nc2nc(O[C@@H]3CO[C@H]4[C@@H]3OC[C@H]4O)[nH]c2cc1Cl (stereo partly shown) [Compound I-2-37] | 3.2 | 645 | 
26 | OC1CC=C(c2cc(F)c3c(c2)CCC3Nc2nc3nc(O[C@@H]4CO[C@H]5[C@@H]4OC[C@H]5O)[nH]c3cc2Cl)CC1 (stereo partly shown) [Compound I-2-38] | 3.1 | 725 | 
